# Results from patent US9034868B2 (priority 2008, dated 2015).
# Entries after “also recorded” stand apart in the source; their conditions may differ.
# Columns and labels:
# StxB [1] = assay type: cell-based
# [2] = tested on: vesicular stomatitis virus G protein (VSVG); assay type: cell-based, human
# transferrin (Tf) = assay type: cell-based; conditions: 20 μM, 30 min, 37° C.
# CTxB = assay type: cell-based; conditions: 20 μM
# StxB [3] = assay type: cell-based, human
# TGN46 = assay type: cell-based, human
# 125I-EGF = assay type: cell-based, human
# StxB [4] = assay type: cell-based; conditions: 20 μM, 30 min, 37° C.
# StxB [5] = assay type: cell-based; conditions: 20 μM, 45 min at 37° C.
# CI-MPR = assay type: cell-based, human
# StxB [6] = assay type: cell-based, human; remark: listed apart in the source
structure (smiles),measurement,setting,value
"CCC(=O)N1CC(=O)Nc2ccc(Br)cc2C1c1ccccc1 (stereo not drawn) [Compound 193, 7-bromo-5-phenyl-4-propionyl-4,5-dihydro-1H-benzo[e][1,4]diazepin-2(3H)-one]",reduction of retrograde transport of STxB to the TGN,StxB [1],90%
same,"reduction of transport of StxB to the TGN, 4 h after internalization",StxB [1],50%
same,anterograde transport of GFP-VSVGts045,[2],not significantly reduced
same,endocytosis of transferrin (Tf),transferrin (Tf),not altered
same,apparent side effects,THP1-cells,did not cause any apparent side effects
same,inhibition of Stx cytotoxicity,Stx1 and Stx2,100 fold
same,cellular localisation of CtxB,CTxB,accumulation
same,amount of bound StxB on cells,StxB [3],not reduced
same,steady-state localization and transport of TGN46,TGN46,similar; also recorded: not been observed a distinct inhibition; also recorded: did not observe a pronounced effect; also recorded: do not impact distinctly
same,effect on lysosomal degradation of 125I-EGF,125I-EGF,no effect
same,endocytosis of StxB,StxB [4],not altered
same,cellular localisation of STxB,StxB [5],accumulation
same,effect on protein biosynthesis,HeLa-cells,only minor
same,steady-state localization of CI-MPR,CI-MPR,similar
same,retrograde transport of StxB to the TGN,StxB [6],stark reduction
